These results are taken from ChEMBL document CHEMBL4627347, “The signal peptide as a new target for drug design” (Bioorg Med Chem Lett, 2020).

The structures appear in SMILES notation.

The target of one assay is T1, Sortilin (Homo sapiens, UniProt Q99523).
T1 sequence (Q99523 whole entry): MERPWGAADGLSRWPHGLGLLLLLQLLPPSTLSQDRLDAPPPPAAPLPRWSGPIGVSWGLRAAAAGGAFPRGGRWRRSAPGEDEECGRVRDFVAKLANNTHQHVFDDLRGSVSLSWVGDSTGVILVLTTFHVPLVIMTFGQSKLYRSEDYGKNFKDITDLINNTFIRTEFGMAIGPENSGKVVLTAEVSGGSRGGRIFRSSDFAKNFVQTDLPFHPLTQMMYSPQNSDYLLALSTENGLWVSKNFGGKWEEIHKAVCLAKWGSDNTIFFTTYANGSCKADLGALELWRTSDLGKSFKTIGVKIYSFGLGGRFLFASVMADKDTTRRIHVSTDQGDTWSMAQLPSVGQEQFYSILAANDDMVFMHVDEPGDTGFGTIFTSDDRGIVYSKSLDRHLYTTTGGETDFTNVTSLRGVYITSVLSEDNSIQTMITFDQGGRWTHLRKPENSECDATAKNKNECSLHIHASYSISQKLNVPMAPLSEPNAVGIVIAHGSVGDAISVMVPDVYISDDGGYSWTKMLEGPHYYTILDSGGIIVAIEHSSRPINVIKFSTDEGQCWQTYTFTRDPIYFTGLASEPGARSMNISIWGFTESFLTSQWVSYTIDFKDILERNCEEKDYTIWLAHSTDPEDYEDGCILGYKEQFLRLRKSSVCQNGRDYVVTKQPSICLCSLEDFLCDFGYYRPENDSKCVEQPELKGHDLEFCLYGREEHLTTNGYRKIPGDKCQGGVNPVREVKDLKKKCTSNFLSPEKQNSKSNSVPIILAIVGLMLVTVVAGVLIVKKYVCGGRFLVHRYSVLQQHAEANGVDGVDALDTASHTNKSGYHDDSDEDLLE
In words: Inhibition of GFP-tagged Sortilin (unknown origin) expressed in HEK293T cells after 42 hrs by FACS analysis. Format: cell-based, HEK-293T. A general note: In flow cytometry, cells or beads pass a laser one at a time.

Assay [1] has as its target T-cell surface glycoprotein CD4 (Homo sapiens, UniProt P01730). Nature of the assay: Inhibition of FITC-tagged human CD4 expressed in human SUP-T1 cells after 72 hrs by FACS analysis. The format is cell-based.

The IC50 is the concentration that gives 50% inhibition. Read a high IC50 as weaker potency in that assay.

For the compound `C=C1CN(S(=O)(=O)c2ccc(C)cc2)CCCN(Cc2ccccc2)CCCN(S(=O)(=O)c2ccc(C)cc2)C1`, the concentration for half-maximal inhibition (IC50) against Sortilin was determined as 380 nM; in assay [1] it was 210 nM.
